According to paper PMC11582173, “Synthesis, cytotoxicity, anti-inflammatory, anti-metastatic and anti-oxidant activities of novel chalcones incorporating 2-phenoxy-N-arylacetamide and thiophene moieties: induction of apoptosis in MCF7 and HEP2 cells” (Naunyn-Schmiedeberg's Archives of Pharmacology, 2024):

Test system: IL-1B gene
Assay: Real-time PCR, IL-1B gene expression
Assay type: cell-based, human
Settings: relative to untreated control (1)
Method: The expression level of the following six genes (Ki-67, Survivin, Interleukin-1 beta (IL-1B), Interleukin-6 (IL-6), Cyclooxygenase-2 (COX-2) and protein kinase B (AKT1)) was determined in MCF7 and HEP2 treated with the IC50 of compound 5c. The untreated cells were used as a negative control for comparison purposes. […] Ki-67 is a popular proliferation marker for human tumor cells. […] Survivin is an inhibitor of apoptotic protein (IAP) family member, which is essential for cell division. The lowering of the expression of survivin inhibited tumor development, triggered apoptosis, and made tumor cells more susceptible to radiation and chemotherapy (Albadari and Li [2023]). […] IL-1B is a pleiotropic mediator of inflammation, which is produced in response to a variety of stressors (Aarreberg et al. [2019]). […] IL-6 is a pro-inflammatory cytokine that plays a significant role in the proliferation and differentiation of human cells. It promotes the production of numerous proteins involved in acute inflammation (Uciechowski and Dempke [2020]). […]
The expression level of the following six genes (Ki-67, survivin, AKT1, IL-6, COX2, and IL-1B) was examined using real-time polymerase chain reaction (qPCR) (Mohamed et al. [2023a]). […] The cycle threshold (Ct) was determined automatically. […]

COc1ccc(NC(=O)COc2ccc(C=CC(=O)c3cccs3)cc2)cc1 [Compound 5c, N-(4-Methoxyphenyl)-2-(4-(3-oxo-3-(thiophen-2-yl)prop-1-en-1-yl)phenoxy)acetamide]
IL-1B expression folding (HEP2 cells treated with IC50 of 5c): 0.461±0.069 fold
IL-1B expression folding (MCF7 cells treated with IC50 of 5c): 0.4008±0.116 fold
